# From patent US20260256792A1, “TREATMENT OF CHRONIC SPONTANEOUS URTICARIA BY ADMINISTERING (R)-2-[3-[4-AMINO-3-(2-FLUORO-4-PHENOXY-PHENYL)PYRAZOLO[3,4-D]PYRIMIDIN-1-YL]PIPERIDINE-1-CARBONYL]-4-METHYL-4-[4-(OXETAN-3-YL)PIPERAZIN-1-YL]PENT-2-ENENITRILE” (priority 2023, published 2026)
# System: moderate-to-severe chronic spontaneous urticaria (CSU)
# Assay: Phase 2 CSU study: itch severity score over 7 days (ISS7)
# Format: in vivo, human
# Text: The study comprises a 12 week, randomized, double-blind, placebo-controlled, multi-center, dose-ranging efficacy and safety phase, followed by a 40 week open label extension (OLE) phase (see FIG. 1). The study consists of three phases and an optional OLE phase. […] Clinically, CSU is characterized by the spontaneous and recurrent appearance of pruritic hives. The proposed primary endpoints were the UAS7 at Week 12 in EU and EU reference countries and the ISS7 in the US. Regardless of where a participant was from, all assessments were the same. The UAS7 score is a composite score containing both the HSS7 and the ISS7. This allowed a global assessment of the two key components of urticaria: hives and itch. […] The UAS is a validated PRO measure. […] The daily UAS scores range from 0 to 6 point/day. […] Patients were to complete the UAS using the e-diary. […] The following secondary endpoints were to be analyzed using the same approach as for the primary endpoint: • Change from baseline in UAS7 at Week 4 • Change from baseline in UAS7 at Week 12 (for US and US reference countries) • Change from baseline in ISS7 at Week 12 (except US and US reference countries) • Change from baseline in HSS7 at Week 12
# [1] = Week 4, 400 mg TID, Prior Omalizumab Use
# [2] = Week 5, 400 mg BID, Omalizumab-Naïve
# [3] = Week 5, 400 mg BID, Prior Omalizumab Use
# [4] = Week 5, 400 mg QPM, Omalizumab-Naïve
# [5] = Week 5, 400 mg QPM, Prior Omalizumab Use
# [6] = Week 5, 400 mg TID, Omalizumab-Naïve
# [7] = Week 5, 400 mg TID, Prior Omalizumab Use
# [8] = Week 6, 400 mg BID, Omalizumab-Naïve
# [9] = Week 6, 400 mg BID, Prior Omalizumab Use
# [10] = Week 6, 400 mg QPM, Omalizumab-Naïve
# [11] = Week 6, 400 mg QPM, Prior Omalizumab Use
# [12] = Week 6, 400 mg TID, Omalizumab-Naïve
# [13] = Week 6, 400 mg TID, Prior Omalizumab Use
# [14] = Week 7, 400 mg BID, Omalizumab-Naïve
# [15] = Week 7, 400 mg BID, Prior Omalizumab Use
# [16] = Week 7, 400 mg QPM, Omalizumab-Naïve
# [17] = Week 7, 400 mg QPM, Prior Omalizumab Use
smiles,measurement,setting,value
"CC(C)(C=C(C#N)C(=O)N1CCC[C@@H](n2nc(-c3ccc(Oc4ccccc4)cc3F)c3c(N)ncnc32)C1)N1CCN(C2COC2)CC1 [rilzabrutinib, (R)-2-[3-[4-amino-3-(2-fluoro-4-phenoxy-phenyl)pyrazolo[3,4-d]pyrimidin-1-yl]piperidine-1-carbonyl]-4-methyl-4-[4-(oxetan-3-yl)piperazin-1-yl]pent-2-enenitrile]",ISS7 Mean (SD),[1],6.17 (6.41)
same,ISS7 Median,[1],5.42
same,ISS7 Percent change from baseline Mean (SD),[1],−61.65 (32.63) %
same,ISS7 Percent change from baseline Median,[1],−62.50%
same,ISS7 Change from baseline Mean (SD),[2],−6.55 (6.17)
same,ISS7 Change from baseline Median,[2],−6.42
same,ISS7 Mean (SD),[2],8.88 (6.81)
same,ISS7 Median,[2],8.50
same,ISS7 Percent change from baseline Mean (SD),[2],−43.73 (41.21) %
same,ISS7 Percent change from baseline Median,[2],−39.85%
same,ISS7 Change from baseline Median,[3],−14.50
same,ISS7 Mean (SD),[3],5.50 (8.54)
same,ISS7 Median,[3],2.00
same,ISS7 Percent change from baseline Mean (SD),[3],−68.33 (47.26) %
same,ISS7 Percent change from baseline Median,[3],−86.67%
same,ISS7 Change from baseline Mean (SD),[4],−5.53 (4.98)
same,ISS7 Change from baseline Median,[4],−4.10
same,ISS7 Mean (SD),[4],11.00 (4.68)
same,ISS7 Percent change from baseline Mean (SD),[4],−31.93 (26.18) %
same,ISS7 Percent change from baseline Median,[4],−30.00%
same,ISS7 Change from baseline Mean (SD),[5],−10.00 (NC)
same,ISS7 Change from baseline Median,[5],−10.00
same,ISS7 Mean (SD),[5],11.00 (NC)
same,ISS7 Percent change from baseline Mean (SD),[5],−47.62 (NC) %
same,ISS7 Percent change from baseline Median,[5],−47.62%
same,ISS7 Change from baseline Mean (SD),[6],−9.18 (6.46)
same,ISS7 Change from baseline Median,[6],−9.00
same,ISS7 Mean (SD),[6],6.92 (5.87)
same,ISS7 Median,[6],7.00
same,ISS7 Percent change from baseline Mean (SD),[6],−55.68 (34.88) %
same,ISS7 Percent change from baseline Median,[6],−56.25%
same,ISS7 Mean (SD),[7],5.50 (6.53)
same,ISS7 Median,[7],3.00
same,ISS7 Percent change from baseline Mean (SD),[7],−66.60 (31.51) %
same,ISS7 Percent change from baseline Median,[7],−72.43%
same,ISS7 Change from baseline Mean (SD),[8],−6.58 (5.90)
same,ISS7 Change from baseline Median,[8],−5.75
same,ISS7 Mean (SD),[8],8.85 (6.40)
same,ISS7 Percent change from baseline Mean (SD),[8],−42.90 (39.02) %
same,ISS7 Percent change from baseline Median,[8],−33.40%
same,ISS7 Change from baseline Mean (SD),[9],−10.13 (9.42)
same,ISS7 Change from baseline Median,[9],−14.00
same,ISS7 Mean (SD),[9],7.07 (8.32)
same,ISS7 Median,[9],2.33
same,ISS7 Percent change from baseline Mean (SD),[9],−56.44 (51.68) %
same,ISS7 Change from baseline Mean (SD),[10],−6.59 (5.45)
same,ISS7 Change from baseline Median,[10],−5.00
same,ISS7 Mean (SD),[10],10.27 (5.26)
same,ISS7 Percent change from baseline Mean (SD),[10],−38.20 (29.52) %
same,ISS7 Percent change from baseline Median,[10],−31.67%
same,ISS7 Change from baseline Mean (SD),[11],−12.00 (NC)
same,ISS7 Change from baseline Median,[11],−12.00
same,ISS7 Mean (SD),[11],9.00 (NC)
same,ISS7 Median,[11],9.00
same,ISS7 Percent change from baseline Mean (SD),[11],−57.14 (NC) %
same,ISS7 Percent change from baseline Median,[11],−57.14%
same,ISS7 Change from baseline Mean (SD),[12],−8.71 (6.32)
same,ISS7 Change from baseline Median,[12],−7.50
same,ISS7 Mean (SD),[12],7.32 (6.05)
same,ISS7 Median,[12],7.00
same,ISS7 Percent change from baseline Mean (SD),[12],−53.59 (35.59) %
same,ISS7 Percent change from baseline Median,[12],−50.00%
same,ISS7 Change from baseline Mean (SD),[13],−12.83 (7.49)
same,ISS7 Change from baseline Median,[13],−14.50
same,ISS7 Mean (SD),[13],4.17 (6.88)
same,ISS7 Median,[13],2.00
same,ISS7 Percent change from baseline Mean (SD),[13],−75.50 (33.00) %
same,ISS7 Percent change from baseline Median,[13],−88.10%
same,ISS7 Change from baseline Mean (SD),[14],−7.28 (5.95)
same,ISS7 Change from baseline Median,[14],−8.08
same,ISS7 Mean (SD),[14],8.21 (6.16)
same,ISS7 Median,[14],7.00
same,ISS7 Percent change from baseline Mean (SD),[14],−46.93 (37.51) %
same,ISS7 Percent change from baseline Median,[14],−56.35%
same,ISS7 Change from baseline Mean (SD),[15],−10.40 (9.91)
same,ISS7 Change from baseline Median,[15],−13.00
same,ISS7 Mean (SD),[15],6.80 (8.56)
same,ISS7 Median,[15],2.00
same,ISS7 Percent change from baseline Mean (SD),[15],−57.33 (52.62) %
same,ISS7 Percent change from baseline Median,[15],−86.67%
same,ISS7 Change from baseline Mean (SD),[16],−6.11 (5.15)
same,ISS7 Change from baseline Median,[16],−5.20
same,ISS7 Mean (SD),[16],10.68 (5.34)
same,ISS7 Percent change from baseline Mean (SD),[16],−36.22 (29.09) %
same,ISS7 Percent change from baseline Median,[16],−37.78%
same,ISS7 Change from baseline Mean (SD),[17],−13.00 (NC)
same,ISS7 Change from baseline Median,[17],−13.00
same,ISS7 Mean (SD),[17],8.00 (NC)
same,ISS7 Median,[17],8.00
same,ISS7 Percent change from baseline Mean (SD),[17],−61.90 (NC) %
same,ISS7 Percent change from baseline Median,[17],−61.90%
